Laboratory results from patent US4200575A, “7[(2-Thiazolyl)-2-(oxoimino)acetamido]cephalosporin derivatives” (Takeda Chemical Industries, Ltd., priority 1977, dated 1980).

What was measured:
Assay in all cases: Minimal inhibitory concentration (M.I.C.), agar dilution method
Details in all cases: TSA, inoculum 10^7 /ml
[1] = system: E. coli 0-111; assay type: cell-based, Escherichia coli
Method in brief: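 MIC against E. coli O-111 was determined by agar dilution.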

[2] = system: S. marcescens TN 24; assay type: cell-based, Serratia marcescens
Excerpt: (§1) (a) Determination of minimal inhibitory concentrations (Tables 1 to 8):
(§2) Procedure: agar dilution method

[3] = system: S. marcescens IFO 12648; assay type: cell-based, Serratia marcescens
Excerpt: as §1, §2

[4] = system: C. freundii GN 1706; assay type: cell-based, Citrobacter freundii
Excerpt: as §1, §2

[5] = system: C. freundii GN 99; assay type: cell-based, Citrobacter freundii
Excerpt: as §1, §2

[6] = system: E. cloacae TN 1282; assay type: cell-based, Enterobacter cloacae
Excerpt: as §1, §2

[7] = system: P. morganii IFO 3168; assay type: cell-based, Proteus morganii
Excerpt: as §1, §2

[8] = system: S. aureus 209P; assay type: cell-based, Staphylococcus aureus
Excerpt: as §1, §2

[9] = system: S. aureus 1840; assay type: cell-based, Staphylococcus aureus
Excerpt: as §1, §2

[10] = system: P. rettgeri GN4733; assay type: cell-based, Proteus rettgeri
Excerpt: as §1, §2

[11] = system: P. rettgeri TN 338; assay type: cell-based, Proteus rettgeri
Excerpt: as §1, §2

[12] = system: P. vulgaris GN 4413; assay type: cell-based, Proteus vulgaris
Excerpt: as §1, §2

[13] = system: P. vulgaris IFO 3988; assay type: cell-based, Proteus vulgaris
Excerpt: as §1, §2

[14] = system: K. pneumoniae DT; assay type: cell-based, Klebsiella pneumoniae
Excerpt: as §1, §2

[15] = system: K. pneumoniae GN 3835; assay type: cell-based, Klebsiella pneumoniae
Excerpt: as §1, §2

[16] = system: P. mirabilis GN 4359; assay type: cell-based, Proteus mirabilis
Excerpt: as §1, §2

[17] = system: E. coli T-7; assay type: cell-based, Escherichia coli
Excerpt: as §1, §2

[18] = system: E. coli NIHJ JC-2; assay type: cell-based, Escherichia coli
Excerpt: as §1, §2

Row | Compound | minimal inhibitory concentration (M.I.C.) [1] | minimal inhibitory concentration (M.I.C.) [2] | minimal inhibitory concentration (M.I.C.) [3] | minimal inhibitory concentration (M.I.C.) [4] | minimal inhibitory concentration (M.I.C.) [5] | minimal inhibitory concentration (M.I.C.) [6] | minimal inhibitory concentration (M.I.C.) [7] | minimal inhibitory concentration (M.I.C.) [8] | minimal inhibitory concentration (M.I.C.) [9] | minimal inhibitory concentration (M.I.C.) [10] | minimal inhibitory concentration (M.I.C.) [11] | minimal inhibitory concentration (M.I.C.) [12] | minimal inhibitory concentration (M.I.C.) [13] | minimal inhibitory concentration (M.I.C.) [14] | minimal inhibitory concentration (M.I.C.) [15] | minimal inhibitory concentration (M.I.C.) [16] | minimal inhibitory concentration (M.I.C.) [17] | minimal inhibitory concentration (M.I.C.) [18]
1 | CC1=C(C(=O)O)N2C(=O)C(NC(=O)/C(=N\OC(=O)NC(C)C)c3csc(=N)[nH]3)C2SC1 (stereo not drawn) [Example II - 19] | 3.13 | > 100 | 100 | 12.5 | 12.5 | 100 | 50 | 25 | 25 | 0.39 | 0.1 | 50 | 12.5 | 3.13 | 6.25 | 3.13 | 25 | 6.25
2 | CCCCNC(=O)O/N=C(\C(=O)NC1C(=O)N2C(C(=O)O)=C(COC(C)=O)CSC12)c1csc(=N)[nH]1 (stereo not drawn) [Example II - 20] | 0.024 | 12.5 | 6.25 | 0.39 | 0.39 | 6.25 | 0.39 | 1.56 | 1.56 | 0.05 | ≤ 0.012 | 12.5 | 0.2 | 0.05 | 0.39 | 0.1 | 3.13 | 0.1
3 | CCCCNC(=O)O/N=C(\C(=O)NC1C(=O)N2C(C(=O)O)=C(CSc3nnnn3C)CSC12)c1csc(=N)[nH]1 (stereo not drawn) [Example II - 22] | 0.024 | 5.13 | 6.25 | 0.78 | 0.2 | 12.5 | 0.78 | 0.78 | 3.13 | 0.1 | ≤ 0.012 | 12.5 | 0.1 | 0.1 | 0.78 | 0.39 | 6.25 | 0.39
4 | CCCCNC(=O)O/N=C(\C(=O)NC1C(=O)N2C(C(=O)O)=C(C)CSC12)c1csc(=N)[nH]1 (stereo not drawn) [Example II - 23] | 6.25 | > 100 | 100 | 25 | 12.5 | 100 | 100 | 12.5 | 12.5 | 0.39 | 0.1 | 50 | 12.5 | 3.13 | 6.25 | 3.13 | 25 | 12.5
5 | CC(=O)OCC1=C(C(=O)O)N2C(=O)C(NC(=O)/C(=N\OC(=O)NC3CCCCC3)c3csc(=N)[nH]3)C2SC1 (stereo not drawn) [Example II - 24] | 0.024 | 12.5 | 6.25 | 0.78 | 0.39 | 3.13 | 0.39 | 0.78 | 1.56 | 0.05 | ≤ 0.012 | 25 | 0.1 | 0.05 | 0.39 | 0.1 | 1.56 | 0.1
6 | CNC(=O)O/N=C(\C(=O)NC1C(=O)N2C(C(=O)[O-])=C(C[n+]3ccc(C(N)=O)cc3)CSC12)c1csc(=N)[nH]1 (stereo not drawn) [Example IV - 2, 7-[2-(2-imino-4-thiazolin-4-yl)-2-methylcarbamoyloximinoacetamido]-3-(4-carbamoylpyridiniummethyl)-3-cephem-4-carboxylate (syn-isomer)] | 0.2 | 3.13 | 3.13 | 1.56 | 0.78 | 3.13 | 0.78 | 3.13 | 3.13 | 0.78 | 0.1 | 12.5 | 0.78 | 0.39 | 1.56 | 1.56 | 6.25 | 0.78
7 | CNC(=O)O/N=C(\C(=O)NC1C(=O)N2C(C(=O)O)=C(CSc3nnnn3CCN(C)C)CSC12)c1csc(=N)[nH]1 (stereo not drawn) [Example IV - 3, 7-[2-(2-imino-4-thiazolin-4-yl)-2-methylcarbamoyloximinoacetamido]-3-[1-(2-dimethylammonium)ethyl-1H-tetrazol-5-yl]thiomethyl-3-cephem-4-carboxylate (syn-isomer)] | ≤ 0.2 | 6.25 | 6.25 | 0.78 | ≤ 0.2 | 1.56 | 0.39 | 1.56 | 3.13 | 0.39 | ≤ 0.2 | 100 | 0.39 | ≤ 0.2 | 0.39 | 0.39 | 3.13 | 0.39
